Results from patent publication US20220340597A1, “HEXAHYDRO-1H-PYRAZINO[1,2-A]PYRAZINE COMPOUNDS FOR THE TREATMENT OF AUTOIMMUNE DISEASE” (Hoffmann-La Roche Inc., priority 2019, published 2022).

Target: T1, human TLR9 (Homo sapiens, UniProt Q9NR96)
T1 construct: host or cells: HEK293 (HEK-Blue hTLR9)
T1 sequence (Q9NR96 26-1032): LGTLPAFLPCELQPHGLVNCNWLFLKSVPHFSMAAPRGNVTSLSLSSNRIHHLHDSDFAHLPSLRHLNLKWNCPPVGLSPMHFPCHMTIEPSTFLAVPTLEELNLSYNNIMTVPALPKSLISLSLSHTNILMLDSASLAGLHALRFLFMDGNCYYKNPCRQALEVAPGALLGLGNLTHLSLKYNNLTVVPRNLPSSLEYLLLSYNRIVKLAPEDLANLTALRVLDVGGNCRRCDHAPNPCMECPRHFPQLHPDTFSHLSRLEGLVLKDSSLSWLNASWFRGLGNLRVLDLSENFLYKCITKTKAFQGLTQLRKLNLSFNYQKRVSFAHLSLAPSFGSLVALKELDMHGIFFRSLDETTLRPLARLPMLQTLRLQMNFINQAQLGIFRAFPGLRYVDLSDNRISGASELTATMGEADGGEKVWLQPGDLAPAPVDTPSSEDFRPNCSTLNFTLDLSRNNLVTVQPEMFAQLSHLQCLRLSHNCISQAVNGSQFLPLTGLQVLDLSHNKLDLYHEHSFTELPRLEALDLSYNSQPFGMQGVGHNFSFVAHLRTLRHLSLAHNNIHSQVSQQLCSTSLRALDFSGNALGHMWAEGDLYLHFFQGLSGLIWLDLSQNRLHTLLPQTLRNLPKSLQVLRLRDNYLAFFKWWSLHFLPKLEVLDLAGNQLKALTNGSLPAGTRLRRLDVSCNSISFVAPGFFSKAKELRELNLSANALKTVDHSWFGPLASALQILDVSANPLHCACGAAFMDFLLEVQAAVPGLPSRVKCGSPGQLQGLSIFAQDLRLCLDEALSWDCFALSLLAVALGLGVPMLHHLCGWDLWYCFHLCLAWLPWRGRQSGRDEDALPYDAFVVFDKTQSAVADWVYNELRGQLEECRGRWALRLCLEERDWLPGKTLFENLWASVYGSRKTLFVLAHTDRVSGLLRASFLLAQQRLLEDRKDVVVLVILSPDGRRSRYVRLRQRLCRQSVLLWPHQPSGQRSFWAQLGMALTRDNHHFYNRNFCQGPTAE
Experiment: HEK293-Blue-hTLR-9 cells assay
Assay type: cell-based
Settings: HEK293-Blue-hTLR9 cells, ODN2006 stimulation, 20 hrs, SEAP reporter; read-out: HEK/hTLR9 IC50

| SMILES | IC50 |
| --- | --- |
| Cc1cc(N2CCN3[C@@H](C2)CN(c2ccc(C#N)c4ncccc24)C[C@H]3C)cc(N2CC(C)(N)C2)n1 [Example 73, 5-[(4R,9aS)-8-[2-(3-amino-3-methyl-azetidin-1-yl)-6-methyl-4-pyridyl]-4-methyl-3,4,6,7,9,9a-hexahydro-1H-pyrazino[1,2-a]pyrazin-2-yl]quinoline-8-carbonitrile] | < 32 nM |
| C[C@@H]1CN(c2ccc(C#N)n3ncc(F)c23)C[C@@H]2CN(CCc3ccc(N4CC(C)(N)C4)nc3)CCN21 [Example 74, 4-[(4R,9aS)-8-[2-[6-(3-amino-3-methyl-azetidin-1-yl)-3-pyridyl]ethyl]-4-methyl-3,4,6,7,9,9a-hexahydro-1H-pyrazino[1,2-a]pyrazin-2-yl]-3-fluoro-pyrazolo[1,5-a]pyridine-7-carbonitrile] | 48 nM |
| C[C@@H]1CN(c2ccc(C#N)n3ncc(F)c23)C[C@@H]2CN(CCc3ccc(N4C[C@@H](N)[C@@H](F)C4)nc3)CCN21 [Example 75, 4-[(4R,9aS)-8-[2-[6-[(3R,4S)-3-amino-4-fluoro-pyrrolidin-1-yl]-3-pyridyl]ethyl]-4-methyl-3,4,6,7,9,9a-hexahydro-1H-pyrazino[1,2-a]pyrazin-2-yl]-3-fluoro-pyrazolo[1,5-a]pyridine-7-carbonitrile] | 65 nM |
| Cc1nc(N2CC(C)(N)C2)ccc1CN1CCN2[C@@H](C1)CN(c1ccc(C#N)c3ncccc13)C[C@H]2C [Example 76, 5-[(4R,9aS)-8-[[6-(3-amino-3-methyl-azetidin-1-yl)-2-methyl-3-pyridyl]methyl]-4-methyl-3,4,6,7,9,9a-hexahydro-1H-pyrazino[1,2-a]pyrazin-2-yl]quinoline-8-carbonitrile] | 50 nM |
| [2H]c1ccc2c(N3C[C@@H]4CN(Cc5ccc(N6CCNCC6)nc5)CCN4[C@H](C)C3)ccc(C#N)c2n1 [Example 78, 5-[(4R,9aS)-4-methyl-8-[(6-piperazin-1-yl-3-pyridyl)methyl]-3,4,6,7,9,9a-hexahydro-1H-pyrazino[1,2-a]pyrazin-2-yl]-2-deuterio-quinoline-8-carbonitrile] | < 32 nM |
| [2H]c1ccc2c(N3C[C@@H]4CN(c5ncc(C(=O)N6CC7(CN(C)C7)C6)cc5C)CCN4[C@H](C)C3)ccc(C#N)c2n1 [Example 102, 5-[(4R,9aR)-4-methyl-8-[3-methyl-5-(6-methyl-2,6-diazaspiro[3.3]heptane-2-carbonyl)-2-pyridyl]-3,4,6,7,9,9a-hexahydro-1H-pyrazino[1,2-a]pyrazin-2-yl]-2-deuterio-quinoline-8-carbonitrile] | 154 nM |
| [2H]c1ccc2c(N3C[C@@H]4CN(c5ncc(C(=O)N6CC7(CN(C)C7)C6)cc5C)CCN4[C@@H](C)C3)ccc(C#N)c2n1 [Example 103, 5-[(4S,9aR)-4-methyl-8-[3-methyl-5-(6-methyl-2,6-diazaspiro[3.3]heptane-2-carbonyl)-2-pyridyl]-3,4,6,7,9,9a-hexahydro-1H-pyrazino[1,2-a]pyrazin-2-yl]-2-deuterio-quinoline-8-carbonitrile] | 87 nM |
| C[C@@H]1CN(c2ccc(C#N)c3ncccc23)C[C@@H]2CN(c3ccnc(N4CC[C@@](C)(N)C4)c3)CCN21 [Example 105, 5-[(4R,9aS)-8-[2-[(3R)-3-amino-3-methyl-pyrrolidin-1-yl]-4-pyridyl]-4-methyl-3,4,6,7,9,9a-hexahydro-1H-pyrazino[1,2-a]pyrazin-2-yl]quinoline-8-carbonitrile] | < 32 nM |
| [2H]c1ccc2c(N3C[C@@H]4CN(c5ccc([C@H]6CNCCO6)cc5)CCN4[C@@H](C)C3)ccc(C#N)c2n1 [Example 107, 5-[(4S,9aS)-4-methyl-8-[4-[(2S)-morpholin-2-yl]phenyl]-3,4,6,7,9,9a-hexahydro-1H-pyrazino[1,2-a]pyrazin-2-yl]-2-deuterio-quinoline-8-carbonitrile] | 146 nM |
| [2H]c1ccc2c(N3C[C@@H]4CN(c5ncc(N6CC7CC(C6)N7)cc5C)CCN4[C@@H](C)C3)ccc(C#N)c2n1 [Example 108, 5-[(4S,9aR)-8-[5-(3,6-diazabicyclo[3.1.1]heptan-3-yl)-3-methyl-2-pyridyl]-4-methyl-3,4,6,7,9,9a-hexahydro-1H-pyrazino[1,2-a]pyrazin-2-yl]-2-deuterio-quinoline-8-carbonitrile] | 98 nM |
| [2H]c1ccc2c(N3C[C@@H]4CN(c5ncc(N6C[C@H]7NCCO[C@@H]7C6)cc5C)CCN4[C@@H](C)C3)ccc(C#N)c2n1 [Example 114, 5-[(4S,9aR)-8-[5-[(4aR,7aR)-3,4,4a,5,7,7a-hexahydro-2H-pyrrolo[3,4-b][1,4]oxazin-6-yl]-3-methyl-2-pyridyl]-4-methyl-3,4,6,7,9,9a-hexahydro-1H-pyrazino[1,2-a]pyrazin-2-yl]-2-deuterio-quinoline-8-carbonitrile] | 110 nM |
| [2H]c1ccc2c(N3C[C@@H]4CN(c5ccc(CCN6C[C@@H](N)[C@@H](F)C6)nc5)CCN4[C@@H](C)C3)ccc(C#N)c2n1 [Example 117, 5-[(4S,9aR)-8-[6-[2-[(3R,4S)-3-amino-4-fluoro-pyrrolidin-1-yl]ethyl]-3-pyridyl]-4-methyl-3,4,6,7,9,9a-hexahydro-1H-pyrazino[1,2-a]pyrazin-2-yl]-2-deuterio-quinoline-8-carbonitrile] | 42 nM |
| [2H]c1ccc2c(N3C[C@@H]4CN(c5ccc(CCN6C[C@H](OC)[C@@H](N)C6)cn5)CCN4[C@@H](C)C3)ccc(C#N)c2n1 [Example 122, 5-[(4S,9aR)-8-[5-[2-[(3S,4S)-3-amino-4-methoxy-pyrrolidin-1-yl]ethyl]-2-pyridyl]-4-methyl-3,4,6,7,9,9a-hexahydro-1H-pyrazino[1,2-a]pyrazin-2-yl]-2-deuterio-quinoline-8-carbonitrile] | 51 nM |
| [2H]c1ccc2c(N3C[C@@H]4CN(c5ccc(CN6C[C@@H](N)[C@H](OC)C6)c(C)n5)CCN4[C@@H](C)C3)ccc(C#N)c2n1 [Example 123, 5-[(4S,9aR)-8-[5-[[(3R,4R)-3-amino-4-methoxy-pyrrolidin-1-yl]methyl]-6-methyl-2-pyridyl]-4-methyl-3,4,6,7,9,9a-hexahydro-1H-pyrazino[1,2-a]pyrazin-2-yl]-2-deuterio-quinoline-8-carbonitrile] | 107 nM |
| C[C@@H]1CN(c2ccc(C#N)c3ncccc23)C[C@@H]2CN(CCc3ccc(N4C[C@H]5NCCO[C@@H]5C4)nc3)CCN21 [Example 124, 5-[(4R,9aS)-8-[2-[6-[(4aR,7aR)-3,4,4a,5,7,7a-hexahydro-2H-pyrrolo[3,4-b][1,4]oxazin-6-yl]-3-pyridyl]ethyl]-4-methyl-3,4,6,7,9,9a-hexahydro-1H-pyrazino[1,2-a]pyrazin-2-yl]quinoline-8-carbonitrile] | 55 nM |
| C[C@H]1CN(c2ccc(C#N)c3ncccc23)C[C@@H]2CN(c3ccc([C@@H]4CNCCO4)cc3)CCN21 [Example 125, 5-[(4S,9aS)-4-methyl-8-[4-[(2R)-morpholin-2-yl]phenyl]-3,4,6,7,9,9a-hexahydro-1H-pyrazino[1,2-a]pyrazin-2-yl]quinoline-8-carbonitrile] | 120 nM |
